Here are results for 12 substances from USRE48461E1, “Modulation of androgen receptor expression” (Ionis Pharmaceuticals, Inc., priority 2012, dated 2021).

pIC50: −log10 of the molar value. Oligonucleotides are written 5' to 3', each unit as a sugar letter and its base; * is a phosphorothioate linkage, no mark a phosphodiester; rarer units and linkages stand in square brackets, end groups in braces. Plain capitals give the bases only. e = 2'-O-(2-methoxyethyl) (MOE); k = constrained ethyl (cEt); [5mC] = 5-methylcytosine; d = 2'-deoxy (DNA)

The test system of series [1] is AR mRNA. In words: Dose-dependent antisense inhibition of human AR in HuVEC cells (electroporation, qRT-PCR RTS3559, IC50). It counts as cell-based. The settings on record: HuVEC. The method, then: (§1) After a treatment period of approximately 16 hours, RNA was isolated from the cells and AR mRNA levels were measured by quantitative real-time PCR. Human AR primer probe set RTS3559 was used to measure mRNA levels. AR mRNA levels were adjusted according to total RNA content, as measured by RIBOGREEN®. […] The antisense oligonucleotides were tested in a series of experiments that had similar culture conditions.
as §1, §1, §1, §1
(§2) After a treatment period of approximately 16 hours, RNA was isolated from the cells and AR mRNA levels were measured by quantitative real-time PCR. Human AR primer probe set RTS3559 was used to measure mRNA levels. AR mRNA levels were adjusted according to total RNA content, as measured by RIBOGREEN®.
as §2
In general terms: In qPCR the cycle at which signal appears reflects the starting amount.

Series [2] concerns AR mRNA. In words: Antisense inhibition of human AR in HuVEC cells, single concentration (electroporation, qRT-PCR RTS3559). It counts as cell-based. The method, then: Antisense oligonucleotides were designed targeting an AR nucleic acid and were tested for their effects on AR mRNA in vitro. The antisense oligonucleotides were tested in a series of experiments that had similar culture conditions. […] Human primer probe set RTS3559 (forward sequence [NT], designated herein as SEQ ID NO: 9; reverse sequence [NT], designated herein as SEQ ID NO: 10; probe sequence [NT], designated herein as SEQ ID NO: 11) was used to measure mRNA levels. AR mRNA levels were adjusted according to total RNA content, as measured by RIBOGREEN®. […] A total of 155 oligonucleotides were tested. Additional antisense oligonucleotides were designed targeting an AR nucleic acid and were tested for their effects on AR mRNA in vitro. […] Human primer probe set RTS3559 was used to measure mRNA levels. AR mRNA levels were adjusted according to total RNA content, as measured by RIBOGREEN®. […] A total of 82 oligonucleotides were tested. Additional antisense oligonucleotides were designed targeting an AR nucleic acid and were tested for their effects on AR mRNA in vitro. […] Human primer probe set RTS3559 was used to measure mRNA levels. AR mRNA levels were adjusted according to total RNA content, as measured by RIBOGREEN®. […] A total of 40 oligonucleotides were tested. Additional antisense oligonucleotides were designed targeting an AR nucleic acid and were tested for their effects on AR mRNA in vitro. […] Human primer probe set RTS3559 was used to measure mRNA levels. AR mRNA levels were adjusted according to total RNA content, as measured by RIBOGREEN®. […] A total of 75 oligonucleotides were tested. Additional antisense oligonucleotides were designed targeting an AR nucleic acid and were tested for their effects on AR mRNA in vitro. […] Human primer probe set RTS3559 was used to measure mRNA levels. AR mRNA levels were adjusted according to total RNA content, as measured by RIBOGREEN®. […] A total of 616 oligonucleotides were tested. Additional antisense oligonucleotides were designed targeting an AR nucleic acid and were tested for their effects on AR mRNA in vitro. […] Human primer probe set RTS3559 was used to measure mRNA levels. AR mRNA levels were adjusted according to total RNA content, as measured by RIBOGREEN®. […] A total of 385 oligonucleotides were tested.

Setting [3] is: Table 36, electroporation, approximately 16 hours.
Where [4] appears, read: 500 nM ASO, electroporation, ~24 h, Table 1.
[5] abbreviates: Table 34, electroporation, approximately 16 hours.
The mark [6] stands for this setting: Table 23, 500 nM oligonucleotide, electroporation, approximately 24 hours, relative to untreated control.
Where [7] appears, read: Table 32, electroporation, approximately 16 hours.
[8] abbreviates: Table 35, electroporation, approximately 16 hours.
[9] abbreviates: Table 29, electroporation, approximately 16 hours.

On to “584329 (kG*kG*kT*dT*dA*dT*dG*dG*dT*dT*d[5mC]*dT*dG*kT*k[5mC]*kT; antisense) [compound 584329]”, for which, in the series on AR mRNA [1] (setting [3]), the “percent inhibition of AR, 46.9 nM” value was determined as 0%; the “percent inhibition of AR, 187.5 nM” value stood at 17%; the “percent inhibition of AR, 750.0 nM” value is given as 67%; the “percent inhibition of AR, 3000.0 nM” value worked out at 86%. For the same substance, in the series on AR mRNA [1] (setting [3]), the pIC50 (commonly the negative decadic logarithm of the IC50, by convention in mol/L) was 6.34. Moreover, in the series with AR mRNA [2] (1,000 nM ASO, ~24 h, Table 26), the % inhibition (in general, the percentage by which the read-out fell short of the control) is listed as 58%.
Consider “549387 (kA*kG*k[5mC]*dT*dT*d[5mC]*dA*dT*d[5mC]*dT*d[5mC]*d[5mC]*dA*k[5mC]*kA*kG; antisense) [compound 549387]”, for which the “percent inhibition of AR” value in the series on AR mRNA [1] (55.6 nM, ~16 h, Table 4) was 9%; in the series on AR mRNA [1] (166.7 nM, ~16 h, Table 4), 41%; in the series on AR mRNA [1] (500.0 nM, ~16 h, Table 4), 68%; in the series with AR mRNA [1] (1500.0 nM, ~16 h, Table 4), 92%. Moreover, the pIC50 in the series with AR mRNA [1] (~16 h, Table 4) is 6.58. Besides, the “% inhibition” value in the series on AR mRNA [2] (setting [4]) worked out at 84%.
In the case of “584128 (kA*kT*kT*d[5mC]*dT*dT*dG*dA*d[5mC]*dT*dG*dT*d[5mC]*kT*kG*kA; antisense) [compound 584128]”, in the series on AR mRNA [1] (setting [5]), the “percent inhibition of AR, 46.9 nM” value is 20%; the “percent inhibition of AR, 187.5 nM” value turned out to be 22%; the “percent inhibition of AR, 750.0 nM” value is reported as 41%; the “percent inhibition of AR, 3000.0 nM” value came out at 72%. For the same substance, the pIC50 in the series with AR mRNA [1] (setting [5]) was 6.13. Also, the “% inhibition” value with AR mRNA [2] (setting [6]) was 38%.
Take “560133 (antisense kA*kT*kG*dG*dT*dT*dG*dA*dT*dT*dT*dA*kA*kT*kG*eG) [compound 560133]”: the “percent inhibition of AR” value is 17% with AR mRNA [1] (31.25 nM, ~16 h, Table 14); 15% with AR mRNA [1] (62.5 nM, ~16 h, Table 14); 24% in the series on AR mRNA [1] (125.0 nM, ~16 h, Table 14); 58% in the series on AR mRNA [1] (500.0 nM, ~16 h, Table 14); 79% in the series with AR mRNA [1] (1000.0 nM, ~16 h, Table 14). For the same substance, the pIC50 in the series with AR mRNA [1] (~16 h, Table 14) was 6.47. Also, the “% inhibition” value in the series with AR mRNA [2] (1,000 nM ASO, ~24 h, Table 13) came to 53%.
For “583881 (k[5mC]*k[5mC]*kT*dT*dT*dG*dG*dT*dG*dT*dA*dA*d[5mC]*k[5mC]*kT*k[5mC]; antisense) [compound 583881]”, in the series on AR mRNA [1] (setting [7]), the “percent inhibition of AR, 46.9 nM” value worked out at 28%; the “percent inhibition of AR, 187.5 nM” value came to 50%; the “percent inhibition of AR, 750.0 nM” value turned out to be 85%; the “percent inhibition of AR, 3000.0 nM” value was found to be 91%. The pIC50 in the series with AR mRNA [1] (setting [7]) is 6.82. In the series on AR mRNA [2] (Table 20, 500 nM oligonucleotide, electroporation, approximately 24 hours, relative to untreated control), the “% inhibition” value is reported as 47%.
Take “560100 (antisense kT*kG*kG*dT*dT*dG*dA*dT*dT*dT*dA*dA*dT*kG*kG*kT) [compound 560100]”: the “percent inhibition of AR” value is 16% in the series on AR mRNA [1] (31.25 nM, ~16 h, Table 6); 24% in the series with AR mRNA [1] (62.5 nM, ~16 h, Table 6); 53% with AR mRNA [1] (125.0 nM, ~16 h, Table 6); 81% in the series on AR mRNA [1] (500.0 nM, ~16 h, Table 6); 93% in the series with AR mRNA [1] (1000.0 nM, ~16 h, Table 6). This substance also gave a pIC50 in the series on AR mRNA [1] (~16 h, Table 6) of 7.00. In addition, the “% inhibition” value in the series with AR mRNA [2] (500 nM ASO, ~24 h, Table 5) was determined as 91%.
Consider “584138 (k[5mC]*kG*k[5mC]*dG*d[5mC]*dA*dG*dG*dT*dA*dG*dG*dA*kG*k[5mC]*k[5mC]; antisense) [compound 584138]”, for which, in the series with AR mRNA [1] (setting [8]), the “percent inhibition of AR, 46.9 nM” value was found to be 2%; the “percent inhibition of AR, 187.5 nM” value came out at 40%; the “percent inhibition of AR, 750.0 nM” value was 62%; the “percent inhibition of AR, 3000.0 nM” value amounted to 89%. In addition, in the series on AR mRNA [1] (setting [8]), the pIC50 was 6.43. In the series with AR mRNA [2] (setting [6]), the “% inhibition” value was determined as 35%.
In the case of “583635 (antisense k[5mC]*kT*kG*dG*d[5mC]*dT*d[5mC]*d[5mC]*dG*d[5mC]*dA*d[5mC]*dT*k[5mC]*kG*kG) [compound 583635]”, in the series with AR mRNA [1] (setting [9]), the “percent inhibition of AR, 46.9 nM” value was determined as 35%; the “percent inhibition of AR, 187.5 nM” value is on record as 56%; the “percent inhibition of AR, 750.0 nM” value worked out at 69%; the “percent inhibition of AR, 3000.0 nM” value is 78%. The pIC50 with AR mRNA [1] (setting [9]) was 6.89. In addition, in the series on AR mRNA [2] (500 nM ASO, ~24 h, Table 17), the “% inhibition” value came out at 50%.
As to “549374 (kG*k[5mC]*kG*d[5mC]*dT*dG*d[5mC]*d[5mC]*dG*dT*dA*dG*dT*k[5mC]*k[5mC]*kA; antisense) [compound 549374]”, the “percent inhibition of AR” value in the series with AR mRNA [1] (55.6 nM, ~16 h, Table 3) is reported as 40%; with AR mRNA [1] (166.7 nM, ~16 h, Table 3) it was 59%; in the series on AR mRNA [1] (500.0 nM, ~16 h, Table 3) it was 83%; in the series on AR mRNA [1] (1500.0 nM, ~16 h, Table 3), 92%. Also, the negative logarithm of the IC50 (pIC50) with AR mRNA [1] (~16 h, Table 3) is 6.97. Further, the “% inhibition” value with AR mRNA [2] (setting [4]) amounted to 93%.
For the substance “549366 (k[5mC]*kT*kT*dG*d[5mC]*d[5mC]*dT*dG*d[5mC]*dG*d[5mC]*dT*dG*kT*k[5mC]*kG; antisense) [compound 549366]”, the “percent inhibition of AR” value was determined as 44% in the series on AR mRNA [1] (55.6 nM, ~16 h, Table 4); 58% with AR mRNA [1] (166.7 nM, ~16 h, Table 4); 72% with AR mRNA [1] (500.0 nM, ~16 h, Table 4); 91% in the series on AR mRNA [1] (1500.0 nM, ~16 h, Table 4). The pIC50 in the series with AR mRNA [1] (~16 h, Table 4) is 6.89. Besides, in the series with AR mRNA [2] (setting [4]), the “% inhibition” value stood at 84%.
Turning to “583998 (k[5mC]*kA*kT*dG*d[5mC]*d[5mC]*dG*d[5mC]*d[5mC]*dA*dG*dG*dG*kT*kA*k[5mC]; antisense) [compound 583998]”, in the series with AR mRNA [1] (setting [5]), the “percent inhibition of AR, 46.9 nM” value is reported as 4%; the “percent inhibition of AR, 187.5 nM” value is on record as 25%; the “percent inhibition of AR, 750.0 nM” value came to 38%; the “percent inhibition of AR, 3000.0 nM” value was 70%. In addition, the pIC50 in the series with AR mRNA [1] (setting [5]) is 6.05. In addition, in the series with AR mRNA [2] (Table 22, 500 nM oligonucleotide, electroporation, approximately 24 hours, relative to untreated control), the “% inhibition” value stood at 45%.
As to “569238 (antisense eG*kT*kT*kG*dA*dT*dT*dT*dA*dA*dT*kG*kG*kT*eT*eG) [compound 569238]”, the “percent inhibition of AR” value with AR mRNA [1] (31.25 nM, ~16 h, Table 14) was 4%; in the series with AR mRNA [1] (62.5 nM, ~16 h, Table 14), 32%; in the series on AR mRNA [1] (125.0 nM, ~16 h, Table 14), 33%; with AR mRNA [1] (500.0 nM, ~16 h, Table 14), 71%; with AR mRNA [1] (1000.0 nM, ~16 h, Table 14), 88%. The same substance had a pIC50 in the series with AR mRNA [1] (~16 h, Table 14) of 6.69. For the same substance, in the series with AR mRNA [2] (1,000 nM ASO, ~24 h, Table 13), the “% inhibition” value is recorded as 51%.
